Assay results taken from the supplement of paper PMC11208160.

Test: recombinant barcode read abundance after kanamycin selection (control-corrected) (log10(CPM+1)); higher = more efficient recombination; sequences stand for … in AGTGCAGAGAAAATCGGCCAGTTTTCTCTGCCTGCAGTCCGCATGCCGT…ATTTATGCAGCGGACTGCCTTTCTCCCAAAGTGATAAACCGGACAGTATCATGGACCGGTTTTCCCGGTAATCCGTATTTGCAAGGTTGGTTTCACT; site = the 11-nt target
How it was run: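 For this pooled screen, each oligo contained a promoter, a target, a barcode and the J23119-driven first 104 bases of the bridge RNA. Gibson cloning placed it into a vector supplying the remaining 73 bp and a T7-inducible recombinase, and the pool was co-electroporated into E. coli with a donor plasmid. Recombination efficiency is derived from barcode counts per million at recombinant junctions after averaging and control correction, and is expressed on a log scale as log10(CPM+1), with selection on chloramphenicol/ampicillin/kanamycin plus 0.1 mM IPTG against a chloramphenicol/ampicillin LB agar control.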

Sequence	recombinant barcode read abundance (log10)
TAGAGGGGGTGGGTTCTAACCTGTTGCGGCC [TAGAGGGCTCC_LTGcore_GG_RTGcore_GG] (site TAGAGGGCTCC) (LTG core: GG, RTG core: GG)	0.114
TAGAGGGTCTGGGTTCTAACCTGTTGCGGGA [TAGAGGGCTCC_LTGcore_TC_RTGcore_TC] (site TAGAGGGCTCC) (LTG core: TC, RTG core: TC)	0.0922
TAGAGGGTGTGGGTTCTAACCTGTTGCGGAG [TAGAGGGCTCC_LTGcore_TG_RTGcore_CT] (site TAGAGGGCTCC) (LTG core: TG, RTG core: CT)	0.173
TAGAGGGTTTGGGTTCTAACCTGTTGCGGAA [TAGAGGGCTCC_LTGcore_TT_RTGcore_TT] (site TAGAGGGCTCC) (LTG core: TT, RTG core: TT)	0.0961
TAGAGGGTTTGGGTTCTAACCTGTTGCGGAG [TAGAGGGCTCC_LTGcore_TT_RTGcore_CT] (site TAGAGGGCTCC) (LTG core: TT, RTG core: CT)	0.949
TCGCGACAATGGGTTCTAACCTGTTGCCGAG [TCGCGACCTCG_LTGcore_AA_RTGcore_CT] (site TCGCGACCTCG) (LTG core: AA, RTG core: CT)	0.0505
TCGCGACAATGGGTTCTAACCTGTTGCCGTT [TCGCGACCTCG_LTGcore_AA_RTGcore_AA] (site TCGCGACCTCG) (LTG core: AA, RTG core: AA)	0.176
TCGCGACACTGGGTTCTAACCTGTTGCCGAG [TCGCGACCTCG_LTGcore_AC_RTGcore_CT] (site TCGCGACCTCG) (LTG core: AC, RTG core: CT)	0.0715
TCGCGACCGTGGGTTCTAACCTGTTGCCGAG [TCGCGACCTCG_LTGcore_CG_RTGcore_CT] (site TCGCGACCTCG) (LTG core: CG, RTG core: CT)	0.392
TCGCGACCTTGGGTTCTAACCTGTTGCCGAT [TCGCGACCTCG_LTGcore_CT_RTGcore_AT] (site TCGCGACCTCG) (LTG core: CT, RTG core: AT)	0.514
TCGCGACCTTGGGTTCTAACCTGTTGCCGCA [TCGCGACCTCG_LTGcore_CT_RTGcore_TG] (site TCGCGACCTCG) (LTG core: CT, RTG core: TG)	0.072
TCGCGACCTTGGGTTCTAACCTGTTGCCGCT [TCGCGACCTCG_LTGcore_CT_RTGcore_AG] (site TCGCGACCTCG) (LTG core: CT, RTG core: AG)	0.0581
TCGCGACCTTGGGTTCTAACCTGTTGCCGGG [TCGCGACCTCG_LTGcore_CT_RTGcore_CC] (site TCGCGACCTCG) (LTG core: CT, RTG core: CC)	0.283
TCGCGACCTTGGGTTCTAACCTGTTGCCGGT [TCGCGACCTCG_LTGcore_CT_RTGcore_AC] (site TCGCGACCTCG) (LTG core: CT, RTG core: AC)	0.129
TCGCGACCTTGGGTTCTAACCTGTTGCCGTC [TCGCGACCTCG_LTGcore_CT_RTGcore_GA] (site TCGCGACCTCG) (LTG core: CT, RTG core: GA)	0.204
TCGCGACGATGGGTTCTAACCTGTTGCCGAG [TCGCGACCTCG_LTGcore_GA_RTGcore_CT] (site TCGCGACCTCG) (LTG core: GA, RTG core: CT)	0.241
TCGCGACGATGGGTTCTAACCTGTTGCCGTC [TCGCGACCTCG_LTGcore_GA_RTGcore_GA] (site TCGCGACCTCG) (LTG core: GA, RTG core: GA)	0.123
TCGCGACGCTGGGTTCTAACCTGTTGCCGAG [TCGCGACCTCG_LTGcore_GC_RTGcore_CT] (site TCGCGACCTCG) (LTG core: GC, RTG core: CT)	0.235
TCGCGACGTTGGGTTCTAACCTGTTGCCGAC [TCGCGACCTCG_LTGcore_GT_RTGcore_GT] (site TCGCGACCTCG) (LTG core: GT, RTG core: GT)	0.0448
TCGCGACTATGGGTTCTAACCTGTTGCCGAG [TCGCGACCTCG_LTGcore_TA_RTGcore_CT] (site TCGCGACCTCG) (LTG core: TA, RTG core: CT)	0.0865
TCGCGACTGTGGGTTCTAACCTGTTGCCGCA [TCGCGACCTCG_LTGcore_TG_RTGcore_TG] (site TCGCGACCTCG) (LTG core: TG, RTG core: TG)	0.419
TCTACCCAATGGGTTCTAACCTGTTGCTGTT [TCTACCCCTCA_LTGcore_AA_RTGcore_AA] (site TCTACCCCTCA) (LTG core: AA, RTG core: AA)	0.186
TCTACCCATTGGGTTCTAACCTGTTGCTGAG [TCTACCCCTCA_LTGcore_AT_RTGcore_CT] (site TCTACCCCTCA) (LTG core: AT, RTG core: CT)	0.331

Sequence	recombinant barcode read abundance (log10)
TCTACCCCATGGGTTCTAACCTGTTGCTGTG [TCTACCCCTCA_LTGcore_CA_RTGcore_CA] (site TCTACCCCTCA) (LTG core: CA, RTG core: CA)	0.0357
TCTACCCCGTGGGTTCTAACCTGTTGCTGAG [TCTACCCCTCA_LTGcore_CG_RTGcore_CT] (site TCTACCCCTCA) (LTG core: CG, RTG core: CT)	0.0746
TCTACCCCGTGGGTTCTAACCTGTTGCTGCG [TCTACCCCTCA_LTGcore_CG_RTGcore_CG] (site TCTACCCCTCA) (LTG core: CG, RTG core: CG)	0.0225
TCTACCCCTTGGGTTCTAACCTGTTGCTGAC [TCTACCCCTCA_LTGcore_CT_RTGcore_GT] (site TCTACCCCTCA) (LTG core: CT, RTG core: GT)	0.169
TCTACCCCTTGGGTTCTAACCTGTTGCTGCG [TCTACCCCTCA_LTGcore_CT_RTGcore_CG] (site TCTACCCCTCA) (LTG core: CT, RTG core: CG)	0.0367
TCTACCCCTTGGGTTCTAACCTGTTGCTGCT [TCTACCCCTCA_LTGcore_CT_RTGcore_AG] (site TCTACCCCTCA) (LTG core: CT, RTG core: AG)	0.0324
TCTACCCCTTGGGTTCTAACCTGTTGCTGGT [TCTACCCCTCA_LTGcore_CT_RTGcore_AC] (site TCTACCCCTCA) (LTG core: CT, RTG core: AC)	0.0498
TCTACCCCTTGGGTTCTAACCTGTTGCTGTC [TCTACCCCTCA_LTGcore_CT_RTGcore_GA] (site TCTACCCCTCA) (LTG core: CT, RTG core: GA)	0.0329
TCTACCCCTTGGGTTCTAACCTGTTGCTGTT [TCTACCCCTCA_LTGcore_CT_RTGcore_AA] (site TCTACCCCTCA) (LTG core: CT, RTG core: AA)	0.07
TCTACCCGATGGGTTCTAACCTGTTGCTGTC [TCTACCCCTCA_LTGcore_GA_RTGcore_GA] (site TCTACCCCTCA) (LTG core: GA, RTG core: GA)	0.0498
TCTACCCGGTGGGTTCTAACCTGTTGCTGAG [TCTACCCCTCA_LTGcore_GG_RTGcore_CT] (site TCTACCCCTCA) (LTG core: GG, RTG core: CT)	0.0172
TCTACCCTATGGGTTCTAACCTGTTGCTGAG [TCTACCCCTCA_LTGcore_TA_RTGcore_CT] (site TCTACCCCTCA) (LTG core: TA, RTG core: CT)	0.0453
TGATACCAATGGGTTCTAACCTGTTGCGTAG [TGATACCCTAC_LTGcore_AA_RTGcore_CT] (site TGATACCCTAC) (LTG core: AA, RTG core: CT)	0.143
TGATACCACTGGGTTCTAACCTGTTGCGTAG [TGATACCCTAC_LTGcore_AC_RTGcore_CT] (site TGATACCCTAC) (LTG core: AC, RTG core: CT)	0.135
TGATACCCTTGGGTTCTAACCTGTTGCGTCC [TGATACCCTAC_LTGcore_CT_RTGcore_GG] (site TGATACCCTAC) (LTG core: CT, RTG core: GG)	0.629
TGATACCCTTGGGTTCTAACCTGTTGCGTCG [TGATACCCTAC_LTGcore_CT_RTGcore_CG] (site TGATACCCTAC) (LTG core: CT, RTG core: CG)	0.0319
TGATACCCTTGGGTTCTAACCTGTTGCGTCT [TGATACCCTAC_LTGcore_CT_RTGcore_AG] (site TGATACCCTAC) (LTG core: CT, RTG core: AG)	0.133
TGATACCCTTGGGTTCTAACCTGTTGCGTGA [TGATACCCTAC_LTGcore_CT_RTGcore_TC] (site TGATACCCTAC) (LTG core: CT, RTG core: TC)	0.864
TGATACCCTTGGGTTCTAACCTGTTGCGTGG [TGATACCCTAC_LTGcore_CT_RTGcore_CC] (site TGATACCCTAC) (LTG core: CT, RTG core: CC)	0.651
TGATACCGATGGGTTCTAACCTGTTGCGTAG [TGATACCCTAC_LTGcore_GA_RTGcore_CT] (site TGATACCCTAC) (LTG core: GA, RTG core: CT)	0.221
TGATACCGTTGGGTTCTAACCTGTTGCGTAC [TGATACCCTAC_LTGcore_GT_RTGcore_GT] (site TGATACCCTAC) (LTG core: GT, RTG core: GT)	0.0235
TGATACCGTTGGGTTCTAACCTGTTGCGTAG [TGATACCCTAC_LTGcore_GT_RTGcore_CT] (site TGATACCCTAC) (LTG core: GT, RTG core: CT)	0.236
